Assay results as given in ChEMBL document CHEMBL1201862, “PubChem BioAssay data set” (2004).
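In this assay, cells in 96-well plates receive the compound at five concentrations for 48 hours. Endpoints are linearly interpolated between the surrounding concentrations. Abbreviation: GI50, concentration required for 50% inhibition of growth.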 Active and inactive are the calls of the source. Cut-off read from the data, not from the text of the source: active = GI50 up to about 1.1 µM and inactive = higher.

How the values were obtained:
Assay in all cases: NCI tumour cell line growth inhibition, 48 h
SNB-19 = tested on: SNB-19
RXF 393 = tested on: RXF 393
SF-295 = tested on: SF-295
OVCAR-3 = tested on: OVCAR-3
NCI-H226 = tested on: NCI-H226
SK-MEL-5 = tested on: SK-MEL-5
SN12C = tested on: SN12C
HCT-116 = tested on: HCT-116
SF-268 = tested on: SF-268
K562 = tested on: K562
HCT-15 = tested on: HCT-15
NCI-H460 = tested on: NCI-H460
HT-29 = tested on: HT-29
A498 = tested on: A498
KM12 = tested on: KM12
NCI-H522 = tested on: NCI-H522
CCRF-CEM = tested on: CCRF-CEM
U-251 = tested on: U-251
SK-MEL-2 = tested on: SK-MEL-2
HL-60 = tested on: HL-60

C=CCN(CCN(CC=C)S(=O)(=O)c1ccc(C)cc1)S(=O)(=O)c1ccc(C)cc1
GI50 (SNB-19): > 100 µM (inactive)
GI50 (RXF 393): > 100 µM (inactive)
GI50 (SF-295): > 100 µM (inactive)
GI50 (OVCAR-3): > 100 µM (inactive)
GI50 (NCI-H226): > 100 µM (inactive)
GI50 (SK-MEL-5): > 100 µM (inactive)
GI50 (SN12C): > 100 µM (inactive)
GI50 (HCT-116): > 100 µM (inactive)
GI50 (SF-268): > 100 µM (inactive)
GI50 (K562): > 100 µM (inactive)
GI50 (HCT-15): > 100 µM
GI50 (NCI-H460): > 100 µM (inactive)
GI50 (HT-29): > 100 µM (inactive)
GI50 (A498): > 100 µM (inactive)
GI50 (KM12): > 100 µM (inactive)
GI50 (NCI-H522): > 100 µM (inactive)
GI50 (CCRF-CEM): > 100 µM (inactive)
GI50 (U-251): > 100 µM (inactive)

O=C(O)C1(Cc2ccccc2)Cc2ccccc2C1
GI50 (SK-MEL-2): > 100 µM (inactive)
GI50 (SNB-19): > 100 µM (inactive)
GI50 (RXF 393): 69.7 µM (inactive)
GI50 (SF-295): > 100 µM (inactive)
GI50 (OVCAR-3): > 100 µM (inactive)
GI50 (NCI-H226): > 100 µM (inactive)
GI50 (SK-MEL-5): > 100 µM (inactive)
GI50 (SN12C): > 100 µM (inactive)
GI50 (HCT-116): > 100 µM (inactive)
GI50 (SF-268): > 100 µM (inactive)
GI50 (K562): > 100 µM (inactive)
GI50 (HCT-15): > 100 µM
GI50 (NCI-H460): > 100 µM (inactive)
GI50 (HT-29): > 100 µM (inactive)
GI50 (A498): > 100 µM (inactive)
GI50 (KM12): > 100 µM (inactive)
GI50 (HL-60): > 100 µM (inactive)
GI50 (NCI-H522): > 100 µM (inactive)
GI50 (CCRF-CEM): > 100 µM (inactive)
GI50 (U-251): > 100 µM (inactive)

Nc1nc(=O)[nH]c2c1cnn2COCCO
GI50 (SK-MEL-2): > 100 µM (inactive)
GI50 (SNB-19): > 100 µM (inactive)
GI50 (RXF 393): 22.3 µM (inactive)
GI50 (SF-295): > 100 µM (inactive)
GI50 (NCI-H226): 0.281 µM (active)
GI50 (SK-MEL-5): > 100 µM (inactive)
GI50 (SN12C): > 100 µM (inactive)
GI50 (HCT-116): > 100 µM (inactive)
GI50 (SF-268): > 100 µM (inactive)
GI50 (K562): > 100 µM (inactive)
GI50 (HCT-15): > 100 µM
GI50 (NCI-H460): > 100 µM (inactive)
GI50 (HT-29): > 100 µM (inactive)
GI50 (A498): > 100 µM (inactive)
GI50 (KM12): > 100 µM (inactive)
GI50 (HL-60): > 100 µM (inactive)
GI50 (CCRF-CEM): > 100 µM (inactive)
GI50 (U-251): 22.4 µM (inactive)

C[C@H]1SC(c2ccc(Cl)cc2Cl)N(NC(=O)c2ccncc2)C1=O (stereo not given in full)
GI50 (SK-MEL-2): 24.3 µM (inactive)
GI50 (SNB-19): 43.2 µM (inactive)
GI50 (RXF 393): 14.7 µM (inactive)
GI50 (SF-295): 49.1 µM (inactive)
GI50 (OVCAR-3): 42 µM (inactive)
GI50 (NCI-H226): 18.5 µM (inactive)
GI50 (SK-MEL-5): 19.2 µM (inactive)
GI50 (SN12C): 45.9 µM (inactive)
GI50 (HCT-116): 20 µM (inactive)
GI50 (SF-268): 22.5 µM (inactive)
GI50 (K562): 23.5 µM (inactive)
GI50 (HCT-15): 42 µM
GI50 (NCI-H460): 45.5 µM (inactive)
GI50 (HT-29): 53 µM (inactive)
GI50 (A498): 12.4 µM (inactive)
GI50 (KM12): 36.7 µM (inactive)
GI50 (HL-60): 28.9 µM (inactive)
GI50 (NCI-H522): 22.6 µM (inactive)
GI50 (CCRF-CEM): 30.1 µM (inactive)
GI50 (U-251): 40.6 µM (inactive)

C[N+](C)(CCCCCC[N+](C)(C)CCCN1C(=O)c2cccc3cccc(c23)C1=O)CCCN1C(=O)c2cccc3cccc(c23)C1=O
GI50 (SK-MEL-2): > 100 µM (inactive)
GI50 (SNB-19): > 100 µM (inactive)
GI50 (RXF 393): > 100 µM (inactive)
GI50 (SF-295): 41.7 µM (inactive)
GI50 (OVCAR-3): 84.9 µM (inactive)
GI50 (SK-MEL-5): > 100 µM (inactive)
GI50 (SN12C): > 100 µM (inactive)
GI50 (HCT-116): 72.8 µM (inactive)
GI50 (SF-268): > 100 µM (inactive)
GI50 (K562): > 100 µM (inactive)
GI50 (HCT-15): > 100 µM
GI50 (NCI-H460): > 100 µM (inactive)
GI50 (HT-29): > 100 µM (inactive)
GI50 (A498): > 100 µM (inactive)
GI50 (KM12): > 100 µM (inactive)
GI50 (HL-60): > 100 µM (inactive)
GI50 (NCI-H522): > 100 µM (inactive)
GI50 (CCRF-CEM): > 100 µM (inactive)
GI50 (U-251): > 100 µM (inactive)

COc1ccc(C2C(Cl)C(=O)N2NC(=O)c2ccccc2O)cc1OC (stereo not given)
GI50 (SK-MEL-2): 92 µM (inactive)
GI50 (SNB-19): > 100 µM (inactive)
GI50 (RXF 393): > 100 µM (inactive)
GI50 (SF-295): 51.8 µM (inactive)
GI50 (OVCAR-3): 75.9 µM (inactive)
GI50 (NCI-H226): > 100 µM (inactive)
GI50 (SK-MEL-5): 60 µM (inactive)
GI50 (SN12C): > 100 µM (inactive)
GI50 (HCT-116): > 100 µM (inactive)
GI50 (SF-268): 54.2 µM (inactive)
GI50 (K562): 50.2 µM (inactive)
GI50 (HCT-15): 68.9 µM
GI50 (NCI-H460): 49.5 µM (inactive)
GI50 (HT-29): 65.8 µM (inactive)
GI50 (A498): > 100 µM (inactive)
GI50 (KM12): 92.3 µM (inactive)
GI50 (HL-60): 41 µM (inactive)
GI50 (NCI-H522): 32.2 µM (inactive)
GI50 (CCRF-CEM): 31.6 µM (inactive)
GI50 (U-251): 92.3 µM (inactive)
